These results are taken from patent US4472387A, “Pharmaceutical compositions capable of increasing cerebral serotonin concentration” (Panmedica S.A., priority 1981, dated 1984).

By solubility is commonly meant the dissolved amount per volume that the medium holds. A high value points to much dissolved substance. Broadly, the LD50 is the dose expected to kill half of the subjects tested. A high value points to lower toxicity.

Where a name gives a salt, the structure may show the parent alone.

For data set [1], the system named is cerebral metabolism of serotonin. Kind of data set: Percent increase in cerebral endogenic level of 5-HTP, 5-HT and 5-HIAA in the rat after intragastric administration. In kind it is in vivo. The conditions noted are these: 1 hour. The protocol: This study, carried out in the rat, determined the efficacy of the compositions according to the present invention on the cerebral metabolism of serotonin and established the potentiation of the serotoninogenic effect with respect to the reference (L)-5-HTP. (Purine, pyrimidine, and pyridine bases are, of themselves, entirely devoid of this activity.)
The animals were male adult rats of the OFA stain weighing 160 to 180 g. They were subjected to an alternating light cycle of 12 hours of light and 12 hours of darkness.
The various derivatives according to the invention were administered in distilled water intragastically at doses of 10, 25, and 50 mg/kg. After one hour, the rats were decapitated; and the contents of 5-hydroxytryptamine (5-HT), of 5-HIAA, and of 5-hydroxytryptophane in the brains were determined by the methods published by G. Curzon and Cool, [Brit. J. Pharmaco., 39, 653 (1970)].
They represent the percentage increase of cerebral endogenic levels at 10, 25, 50 mg/kg of the pure (L)-5-HTP (control) and of compositions according to the present invention for a given batch of control rats.

For data set [2], the system named is blood levels of 5-HTP and 5-hydroxyindolacetic acid (5-HIAA). The experiment in a line: Clinical results: blood levels of 5-HTP and 5-HIAA. The data set is classed as in vivo. The conditions noted are these: for blood levels of 5-HTP / blood levels of 5-hydroxyindolacetic acid (5-HIAA): clinical results; for blood levels of 5-hydroxyindolacetic acid (5-HIAA): principal metabolite of serotonin. The source says:
In interpreting the clinical results of these remarkable medicaments, the applicants have observed that a complex of inosine with 5-HTP, particularly a complex of inosine with (L)-5-HTP, triples the blood levels of 5-HTP and 5-hydroxyindolacetic acid (5-HIAA), the principal metabolite of serotonin.

The subject of data set [3] is mice. The experiment in a line: Toxicity, LD50 per os/mice. The data set is classed as in vivo. The source says: (§1) The toxicities of the salts and the complexes of 5-HTP according to the present invention are very low as witnessed by the LD50 's per os/mice assembled in Table 2 below: […]
Data set [4] is described as follows: Aqueous solubility.
Data set [5] has as its system cerebral serotonin. The conditions noted are these: 5-HTP alone; cited from earlier work.
The conditions of data set [6]: prolonged administration of high doses; cited from earlier work.
Data set [7] can be described thus: Toxicity, LD50 per os/mice. The data set is classed as in vivo. The following applies: mouse, in vivo, po, mice.
Description: as §1

Data set [8] deals with receptors of benzodiazepines. The conditions noted are these: P. Skolnick, 1979; cited from earlier work.

In the case of `NC(Cc1c[nH]c2ccc(O)cc12)C(=O)O.O.O=c1[nH]cnc2c1ncn2[C@@H]1O[C@H](CO)[C@@H](O)[C@H]1O` (racemic) [Example 2, (DL) 5-HYDROXYTRYPTOPHANE INOSINATE], in data set [1] (10 mg/kg), the “Percent increase in cerebral endogenic level of 5-HIAA” value (shortened to “Percent increase … of 5-HIAA”) came to 135%, the “Percent increase in cerebral endogenic level of 5-HT” value was found to be 2%, the “Percent increase in cerebral endogenic level of 5-Ht + 5-HIAA” value (“Percent increase … of 5-Ht + 5-HIAA” below) came out at 85% and the “Percent increase in cerebral endogenic level of (L)-5-HTP” value (“Percent increase … (L)-5-HTP” for short) is on record as 110%. For the same compound, in data set [1] (25 mg/kg), the “Percent increase … of 5-HIAA” value was 345%, the “Percent increase in cerebral endogenic level of 5-HT” value came out at 80%, the “Percent increase … of 5-Ht + 5-HIAA” value came out at 220% and the “Percent increase … (L)-5-HTP” value is recorded as 1665%. In data set [1] (50 mg/kg), the “Percent increase … of 5-HIAA” value was 1190%, the “Percent increase in cerebral endogenic level of 5-HT” value is listed as 110%, the “Percent increase … of 5-Ht + 5-HIAA” value is on record as 700% and the “Percent increase … (L)-5-HTP” value came to 1955%.
Consider `N[C@H](Cc1c[nH]c2ccc(O)cc12)C(=O)O` [(D)-5-HTP, reference compound], for which, in data set [2] (pharmacological response), the activity entry was “almost entire absence of activity”.
For the compound `N[C@@H](Cc1c[nH]c2ccc(O)cc12)C(=O)O` [(L)-5-HTP pure, (L)-5-hydroxytryptophane, reference compound], in data set [1] (10 mg/kg), the “Percent increase … of 5-HIAA” value amounted to 40%, the “Percent increase in cerebral endogenic level of 5-HT” value is 10%, the “Percent increase … of 5-Ht + 5-HIAA” value is listed as 55% and the “Percent increase … (L)-5-HTP” value came out at 120%. In data set [1] (25 mg/kg), the “Percent increase … of 5-HIAA” value is 110%, the “Percent increase in cerebral endogenic level of 5-HT” value is 25%, the “Percent increase … of 5-Ht + 5-HIAA” value is listed as 110% and the “Percent increase … (L)-5-HTP” value came to 260%. In data set [1] (50 mg/kg), the “Percent increase … of 5-HIAA” value was 300%, the “Percent increase in cerebral endogenic level of 5-HT” value is 35%, the “Percent increase … of 5-Ht + 5-HIAA” value was found to be 180% and the “Percent increase … (L)-5-HTP” value was determined as 650%.
In the case of `N[C@@H](Cc1c[nH]c2ccc(O)cc12)C(=O)O.O.O=c1[nH]cnc2c1ncn2[C@@H]1O[C@H](CO)[C@@H](O)[C@H]1O` [Example 1, (L)-5-HTP INOSINATE], in data set [1] (10 mg/kg), the “Percent increase … of 5-HIAA” value turned out to be 165%, the “Percent increase in cerebral endogenic level of 5-HT” value is 2%, the “Percent increase … of 5-Ht + 5-HIAA” value came out at 100% and the “Percent increase … (L)-5-HTP” value came to 135%. Further, in data set [1] (25 mg/kg), the “Percent increase … of 5-HIAA” value worked out at 290%, the “Percent increase in cerebral endogenic level of 5-HT” value was 100%, the “Percent increase … of 5-Ht + 5-HIAA” value stood at 195% and the “Percent increase … (L)-5-HTP” value was found to be 1755%. Moreover, in data set [1] (50 mg/kg), the “Percent increase … of 5-HIAA” value came to 1010%, the “Percent increase in cerebral endogenic level of 5-HT” value is recorded as 70%, the “Percent increase … of 5-Ht + 5-HIAA” value stood at 545% and the “Percent increase … (L)-5-HTP” value was determined as 2665%. In data set [2], the “blood levels of 5-HTP” value is reported as “triples” and the “blood levels of 5-hydroxyindolacetic acid (5-HIAA)” value was “triples”.
As to `N[C@@H](Cc1c[nH]c2ccc(O)cc12)C(=O)O` [Example 4, THEOPHYLLINE SALT OF (L)-5-HYDROXYTRYPTOPHANE], in data set [1] (10 mg/kg), the “Percent increase … of 5-HIAA” value turned out to be 85%, the “Percent increase … of 5-Ht + 5-HIAA” value worked out at 75% and the “Percent increase … (L)-5-HTP” value is 55%. In data set [1] (25 mg/kg), the “Percent increase … of 5-HIAA” value is recorded as 270%, the “Percent increase in cerebral endogenic level of 5-HT” value is given as 25%, the “Percent increase … of 5-Ht + 5-HIAA” value was determined as 150% and the “Percent increase … (L)-5-HTP” value was 1200%. Also, in data set [1] (50 mg/kg), the “Percent increase … of 5-HIAA” value is 870%, the “Percent increase in cerebral endogenic level of 5-HT” value was found to be 35%, the “Percent increase … of 5-Ht + 5-HIAA” value is recorded as 490% and the “Percent increase … (L)-5-HTP” value stood at 1710%. Further, the LD50 per os in data set [3] was determined as 1000 mg/kg. The compound further had a solubility in data set [4] (water) of 3500 µg/mL.
As to `N[C@@H](Cc1c[nH]c2ccc(O)cc12)C(=O)O` [Example 5-HTP, 5-hydroxytryptophane], in data set [5], the “decarboxylation at the peripheral level” value is on record as “considerable decarboxylation”; the hepatic catabolism entry was “high hepatic catabolism”; the “overall yield of cerebral serotonin synthesized with respect to the amount of 5-hydroxytryptophane administered” value was “very low”; the “passage of the gastrointestinal and hematoencephalic barriers” value is reported as “mediocre passage”. Moreover, the renal lesions result in data set [6] is reported as “often results in renal lesions”.
`Cc1ncc(CO)c(CO)c1O.Cl.N[C@@H](Cc1c[nH]c2ccc(O)cc12)C(=O)O` [Example 7, EQUIMOLECULAR COMPLEX OF PYRIDOXINE WITH (L)-5-HYDROXYTRYPTOPHANE]: in data set [1] (10 mg/kg), the “Percent increase … of 5-HIAA” value is recorded as 35%, the “Percent increase in cerebral endogenic level of 5-HT” value is recorded as 20%, the “Percent increase … of 5-Ht + 5-HIAA” value is 40% and the “Percent increase … (L)-5-HTP” value is reported as 190%. For the same compound, in data set [1] (25 mg/kg), the “Percent increase … of 5-HIAA” value turned out to be 230%, the “Percent increase in cerebral endogenic level of 5-HT” value worked out at 80%, the “Percent increase … of 5-Ht + 5-HIAA” value is on record as 165% and the “Percent increase … (L)-5-HTP” value came to 420%. Further, in data set [1] (50 mg/kg), the “Percent increase … of 5-HIAA” value amounted to 755%, the “Percent increase in cerebral endogenic level of 5-HT” value is given as 25%, the “Percent increase … of 5-Ht + 5-HIAA” value was found to be 390% and the “Percent increase … (L)-5-HTP” value is 2500%.
As to `N[C@@H](Cc1c[nH]c2ccc(O)cc12)C(=O)O` [Example 10, NI[…] OF (L)-5-HYDROXYTRYPTOPHANE], the 50% lethal dose (LD50) in data set [7] was more than 2000 mg/kg.
In turn, `N[C@@H](Cc1c[nH]c2ccc(O)cc12)C(=O)O` [Example 12, CAFFEINE SALT OF (L)-5-HYDROXYTRYPTOPHANE] yielded an LD50 per os in data set [3] of more than 2000 mg/kg.
As for `NC(Cc1c[nH]c2ccc(O)cc12)C(=O)O.O=c1[nH]cnc2c1ncn2C1OC(CO)C(O)C1O` (stereo not shown) [complex of inosine with 5-HTP], in data set [2], the “blood levels of 5-HTP” value is listed as “triples” and the “blood levels of 5-hydroxyindolacetic acid (5-HIAA)” value is on record as “triples”.
Regarding `O=c1[nH]cnc2nc[nH]c12` [hypoxanthine, 1,7-dihydropurine-6-one], in data set [8], the “endogenous ligands of receptors of benzodiazepines” value is given as “can constitute endogenous ligands of receptors of benzodiazepines”.
Consider `O=c1[nH]cnc2c1ncn2[C@@H]1O[C@H](CO)[C@@H](O)[C@H]1O` [inosine, 9-β-D-ribofuranosylhypoxanthine], for which the “endogenous ligands of receptors of benzodiazepines” value in data set [8] was “can constitute endogenous ligands of receptors of benzodiazepines”.
Consider “EQU[…] OF (L)-5-HYDROXYT[…] OF ALLOPURINOL [Example 5]”, for which, in data set [1] (10 mg/kg), the “Percent increase … of 5-HIAA” value is 90%, the “Percent increase in cerebral endogenic level of 5-HT” value was 15%, the “Percent increase … of 5-Ht + 5-HIAA” value stood at 60% and the “Percent increase … (L)-5-HTP” value is listed as 108%. Also, in data set [1] (25 mg/kg), the “Percent increase … of 5-HIAA” value came to 100%, the “Percent increase in cerebral endogenic level of 5-HT” value worked out at 70%, the “Percent increase … of 5-Ht + 5-HIAA” value was 85% and the “Percent increase … (L)-5-HTP” value turned out to be 830%. In data set [1] (50 mg/kg), the “Percent increase … of 5-HIAA” value is reported as 765%, the “Percent increase in cerebral endogenic level of 5-HT” value came to 115%, the “Percent increase … of 5-Ht + 5-HIAA” value worked out at 475% and the “Percent increase … (L)-5-HTP” value was 2100%. In data set [3], this compound had an LD50 per os of 1000 mg/kg.
For “EQU[…] OF […] (DL)-5-HYDROXYTRYPTOPHANE [Example 6]”, in data set [1] (10 mg/kg), the “Percent increase … of 5-HIAA” value worked out at 20%, the “Percent increase … of 5-Ht + 5-HIAA” value is 8% and the “Percent increase … (L)-5-HTP” value is given as 115%. For the same compound, in data set [1] (25 mg/kg), the “Percent increase … of 5-HIAA” value was 90%, the “Percent increase in cerebral endogenic level of 5-HT” value is recorded as 30%, the “Percent increase … of 5-Ht + 5-HIAA” value is on record as 65% and the “Percent increase … (L)-5-HTP” value is reported as 230%. In addition, in data set [1] (50 mg/kg), the “Percent increase … of 5-HIAA” value is reported as 360%, the “Percent increase in cerebral endogenic level of 5-HT” value turned out to be 60%, the “Percent increase … of 5-Ht + 5-HIAA” value is 210% and the “Percent increase … (L)-5-HTP” value stood at 1575%. Further, the solubility in water entry in data set [4] (in words) is on record as “very soluble in water”.
